According to US7071168B2, “Anti-cancer compounds and methods related thereto” (The Regents of the University of Colorado, priority 1998, dated 2006):

How the values were obtained:
[1] = tested on: SCLC strain SHP-77; assay: Colorimetric tetrazolium (MTT) assay for cell survival, SCLC strain SHP-77; format: cell-based, human
Summary of the method: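 MTT assay: cells seeded overnight, treated in triplicate across a concentration range for 4 days at 37 °C, 5% CO2. On day 5, MTT was added for 4 h; formazan was dissolved in acidified isopropanol and absorbance read.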

[2] = tested on: bradykinin response of isolated guinea pig ileum; assay: Anti-bradykinin activity on isolated guinea pig ileum; conditions: higher numbers indicate higher potency
Summary of the method: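 Bradykinin concentration-effect curves were run in the absence and presence of compound. Tissue: 25 mm terminal ileum from male Hartley guinea pigs fasted overnight, held at 1 g tension in O2/CO2-bubbled Krebs' solution after 1 h equilibration.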

[3] = target: T1, cloned human bradykinin B2 receptors (Homo sapiens, UniProt P30411); assay: Anti-bradykinin activity on cloned human B2 receptors (CHO cells, Cytosensor microphysiometer); format: cell-based; conditions: higher numbers indicate higher potency
T1 sequence (P30411 1-391): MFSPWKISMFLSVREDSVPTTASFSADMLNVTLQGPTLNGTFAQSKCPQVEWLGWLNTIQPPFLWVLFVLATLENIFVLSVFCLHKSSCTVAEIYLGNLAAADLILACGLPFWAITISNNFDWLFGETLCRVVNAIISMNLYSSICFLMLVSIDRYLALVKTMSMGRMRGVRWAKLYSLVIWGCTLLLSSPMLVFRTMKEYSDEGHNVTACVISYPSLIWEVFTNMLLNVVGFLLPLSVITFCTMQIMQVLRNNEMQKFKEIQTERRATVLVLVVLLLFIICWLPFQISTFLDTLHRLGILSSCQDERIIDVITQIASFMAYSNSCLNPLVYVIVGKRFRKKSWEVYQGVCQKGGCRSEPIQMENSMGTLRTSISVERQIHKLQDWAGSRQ
Procedure: In general, Anti-bradykinin activity was determined by the classical guinea pig ileum assay and on Chinese hamster ovary (CHO) cells expressing cloned human bradykinin B2 receptors. Anti-tumor activity was determined on cultured human cancer cell lines using the standard tetrazolium (MTT) assay.
Chinese hamster ovary cells containing cloned and expressed human bradykinin B2 receptors were grown in cell cups of the Cytosensor microphysiometer in Ham's F-12 medium supplemented with sodium pyruvate and 10% FBS (Gibco 11765-054). For assay the cells were transferred to Ham's F-12 without bicarbonate or serum (Gibco 21700-075) and placed in the Cytosensor. Concentration-response curves were constructed to bradykinin in the presence or absence of new compounds.

[4] = isolated guinea pig ileum, pD2 of bradykinin is 7.4
[5] = cloned human B2 receptors, pD2 for bradykinin is 11

| Compound | MTT: ED50 for killing of SCLC strain SHP-77 in vitro ([1]; Table 1, SHP-77, MTT, 4 days) | GPI: pA2 for bradykinin antagonist activity on isolated guinea pig ileum ([2]; Table 1) | HUMAN: pA2 for bradykinin antagonist potency on cloned human B2 receptors ([3]; Table 1) | MTT: ED50 for killing of SCLC strain SHP-77 in vitro ([1]; SCLC strain SHP-77 in vitro) [µM] | GPI: pA2 for bradykinin antagonist activity on isolated guinea pig ileum [2, 4] | HUMAN: pA2 for bradykinin antagonist potency on cloned human B2 receptors [3, 5] |
| --- | --- | --- | --- | --- | --- | --- |
| F5c-hPhe-Arg [M420] | 60 µM | 7.0 | 10.9 |  |  |  |
| CC1(C)CC(NC(=O)C(Cc2csc3ccccc23)NC(=O)C=Cc2c(F)c(F)c(F)c(F)c2F)CC(C)(C)N1 (stereo not drawn) [M418] |  |  |  | 3.8 | 7.0 | 10.3 |
| CC1(C)CC(NC(=O)C(Cc2csc3ccccc23)NC(=O)C=Cc2cccs2)CC(C)(C)N1 (stereo not drawn) [M476] |  |  |  | 15 | 4.6 | Inact |
| CN1CCN(NC(=O)C(Cc2ccc3ccccc3c2)NC(=O)C=Cc2ccc(N(C)C)cc2)CC1 (stereo not drawn) [M472] |  |  |  | 25 | 5.3 | Inact |
| CC1(C)CC(NC(=O)[C@H](Cc2ccc3ccccc3c2)NC(=NC2CCCCC2)NC2CCCCC2)CC(C)(C)N1 [M222] |  |  |  | 15 | 6.8 | Inact |
| CN(C)CCCNC(=O)C(Cc1ccc2ccccc2c1)NC(=O)C=Cc1c(F)c(F)c(F)c(F)c1F (stereo not drawn) [M526] |  |  |  | 10 | 5.4 | Inact |
| COC(=O)CCCCCCCCC(=O)Nc1ccc(C=CC(=O)NC(C(=O)NC2CC(C)(C)NC(C)(C)C2)C2Cc3ccccc3C2)cc1 (stereo not drawn) [M586-A] |  |  |  | 15 | 5.3 | 12 |
| CN(C(=O)C=Cc1c(F)c(F)c(F)c(F)c1F)C(Cc1ccc(OCc2c(Cl)cccc2Cl)cc1)C(=O)NC1CC(C)(C)NC(C)(C)C1 (stereo not drawn) [M594] |  |  |  | 3.7 | 5.0 | 8 |
| CC1(C)CC(NC(=O)C(Cc2cccnc2)NC(=O)C=Cc2c(F)c(F)c(F)c(F)c2F)CC(C)(C)N1 (stereo not drawn) [M438] |  |  |  | 26 | 4.8 | 10 |
| F5c-OBT-Arg [M550] | 80 µM | Inact | Ag |  |  |  |
| F5c-OBS-Arg [M520] | Inact | 6.1 | 7 |  |  |  |
| CC1(C)CC(NC(=O)[C@H](Cc2ccc3ccccc3c2)NC(=O)C=Cc2ccc(NC(=O)CCCCCCCCCCC(=O)Nc3ccc(C=CC(=O)N[C@@H](Cc4ccc5ccccc5c4)C(=O)NC4CC(C)(C)NC(C)(C)C4)cc3)cc2)CC(C)(C)N1 [M310] |  |  |  | 1.2 | 5.1 | Inact |
| CC1(C)CC(NC(=O)C(NC(=O)C=Cc2ccc(NC(=O)CCCCCCCCCCC(=O)Nc3ccc(C=CC(=O)NC(C(=O)NC4CC(C)(C)NC(C)(C)C4)C4Cc5ccccc5C4)cc3)cc2)C2Cc3ccccc3C2)CC(C)(C)N1 (stereo not drawn) [M294] |  |  |  | 1.8 | Inact | 10.3 |
| CN(C)c1ccc(C=CC(=O)NC(Cc2ccc(OCc3c(Cl)cccc3Cl)cc2)C(=O)NC2CC(C)(C)NC(C)(C)C2)cc1 (stereo not drawn) [M582] |  |  |  | 3 | 5.4 | 9.5 |
| O=C(C=Cc1cccnc1)NC(Cc1ccc2ccccc2c1)C(=O)NC1CCCCC1 (stereo not drawn) [M408] |  |  |  | 22 | 4.6 | 11.5 |
| DDD-(Pac-2Nal-Arg)2 [M484] | 25 µM | Inact | Inact |  |  |  |
